According to patent publication US20250082764A1, “DRUG FOR TREATING TRIPLE NEGATIVE BREAST CANCER” (HINOVA PHARMACEUTICALS INC., priority 2022, published 2025):

Assays:
Assay type in all cases: cell-based
MDA-MB-453 cells [1] = assay: Proliferation of MDA-MB-453 cells, AR PROTAC in combination with chemotherapeutic drug Paclitaxel (Combination Index); details: molar ratio of compound to Paclitaxel 20:1-5000:1; 7 days; synergistic when CI<1
Procedure: (§1) Triple negative breast cancer MDA-MB-453 cells in logarithmic growth stage were inoculated into a 96-well plate at a concentration of 4×10^3 cells/well, and then incubated in an incubator at 37° C., 5% CO2, and saturated humidity for 24 h. To the negative control wells, were added RPMI 1640 cell culture medium containing 10% fetal bovine serum in the same volume as the drug. After cultured for 24 h, to the 96-well plate, were sequentially added AR PROTACs compounds 279, 281, 282, ARV-110 and chemotherapeutic drug Paclitaxel, respectively.
(§2) After adding the drugs and co-incubating for 7 days, 10 μL of CCK-8 was added to each well, and then the plate was further cultured for 2 h. The absorbance value (OD) of each well was measured using a microplate reader at a wavelength of 450 nm. The survival rate was calculated using Prism software, the relative survival rate=(OD value of drug well/OD value of control well)×100%. Alternatively, 100 μL of medium was removed from each well, and then 50 μL of CTG was added. The plate was shaken in the dark for 2 min, allowed to stand for 10 min, and then measured using a microplate reader in Luminescence mode. Prism software was used to calculate the survival rate, the relative survival rate=(the RLU value of drug well/the RLU value of control well)×100%.

MDA-MB-453 cells [2] = assay: Proliferation of MDA-MB-453 cells, AR PROTAC in combination with PI3K inhibitor Duvelisib (Combination Index); details: molar ratio of compound to Duvelisib 1:30-1:1.111; 7-10 days; synergistic when CI<1
Procedure: as §1, with “PI3K inhibitor Duvelisib,” for “chemotherapeutic drug Paclitaxel,”
as §2, with “7-10” for “7”

MDA-MB-453 cells [3] = assay: Inhibition of proliferation of MDA-MB-453 cells by single agents (CCK-8 or CTG); details: co-incubation for 7-10 days; for inhibitory effect on the proliferation of MDA-MB-453 cells (in words): single agent
Procedure: Triple negative breast cancer MDA-MB-453 cells in logarithmic growth stage were inoculated into a 96-well plate at a concentration of 4×10^3 cells/well, and then incubated in an incubator at 37° C., 5% CO2, and saturated humidity for 24 h or 48 h. To the negative control well, was added RPMI 1640 cell medium containing 10% fetal bovine serum in the same volume as the drug. After cultured for 24 h or 48 h, to the 96-well plate, were added AR PROTACs compounds 162, 177, 230, 259, 279, 281, 282, 325, 357, 400, ARV-110, ARV-766 and AR inhibitor HC-1119, respectively. The concentrations of compounds 177, 230, 259, 279, 281, 282, 325, 357, 400, ARV-110, and ARV-766 are 0 μM, 0.002 μM, 0.005 μM, 0.014 μM, 0.041 μM, 0.123 μM, 0.370 μM, 1.111μM, 3.333 μM or 10 μM; while the concentrations of HC-1119 are 0 μM, 1.23 μM, 3.70 μM, 11.11 μM, 33.33 μM or 100 μM.
as §2, with “addition of” for “adding”, “co-incubation” for “co-incubating”, “7-10” for “7”

MDA-MB-453 cells [4] = assay: Proliferation of MDA-MB-453 cells, AR PROTAC in combination with PI3K inhibitor Alpelisib (Combination Index); details: molar ratio of compound to Alpelisib 1:27-9:1; 7 days; synergistic when CI<1
Procedure: as §1, with “ARV-110, ARV-766” for “ARV-110”, “PI3K inhibitor Alpelisib,” for “chemotherapeutic drug Paclitaxel,”
as §2, with “addition of” for “adding”, “co-incubation” for “co-incubating”

MDA-MB-453 cells [5] = assay: Proliferation of MDA-MB-453 cells, AR PROTAC in combination with PI3K inhibitor Idelalisib (Combination Index); details: molar ratio of compound to Idelalisib 1:270-1:3.333; 7-10 days; synergistic when CI<1
Procedure: as §1, with “ARV-110, ARV-766” for “ARV-110”, “PI3K inhibitor Idelalisib,” for “chemotherapeutic drug Paclitaxel,”
as §2, with “7-10” for “7”

IC50 (MDA-MB-453 cells [3]; Homo sapiens, MDA-MB-453, CCK-8 or CTG readout, read-out: IC50 values against MDA-MB-453 cells) [µM]	Compound	effect of drug combination with Paclitaxel on inhibiting the proliferation of MDA-MB-453 cells (MDA-MB-453 cells [1])	effect of drug combination with Duvelisib on inhibiting the proliferation of MDA-MB-453 cells (MDA-MB-453 cells [2])	inhibitory effect on the proliferation of MDA-MB-453 cells (in words) (MDA-MB-453 cells [3])	effect of drug combination with Alpelisib on inhibiting the proliferation of MDA-MB-453 cells (MDA-MB-453 cells [4])	effect of drug combination with Idelalisib on inhibiting the proliferation of MDA-MB-453 cells (MDA-MB-453 cells [5])
–	N#Cc1ccc(O[C@H]2CC[C@H](NC(=O)c3cnc(N4CCC(CN5CCC6(CC5)CN(c5ccc7c(c5)C(=O)N(C5CCC(=O)NC5=O)C7=O)C6)CC4)nn3)CC2)cc1Cl (stereo partly shown) [Compound 279]	synergistic effect	synergistic effect	inhibit the proliferation of MDA-MB-453 cells to varying degrees	synergistic effect	synergistic effect
–	N#Cc1ccc(O[C@H]2CC[C@H](NC(=O)c3ccc(N4CC5(CCN(CC6CCN(c7ccc8c(c7)C(=O)N(C7CCC(=O)NC7=O)C8=O)CC6)CC5)C4)nn3)CC2)cc1Cl (stereo partly shown) [Compound 282]	synergistic effect	synergistic effect	inhibit the proliferation of MDA-MB-453 cells to varying degrees	synergistic effect	synergistic effect
≤ 2	CC1(C)[C@H](Oc2ccc(C#N)c(Cl)c2)C(C)(C)[C@H]1N1Cc2nc(C#C[C@H]3C[C@H](N4CCN(c5cc6c(cc5F)C(=O)N(C5CCC(=O)NC5=O)C6=O)CC4)C3)ccc2C1=O (stereo partly shown) [Compound 357]	–	–	inhibit the proliferation of MDA-MB-453 cells to varying degrees	–	–
–	CC1(C)[C@H](Oc2ccc(C#N)c(Cl)c2)C(C)(C)[C@H]1N1Cc2nc(C#C[C@H]3CC[C@H](N4CCN(c5ccc6c(c5)C(=O)N(C5CCC(=O)NC5=O)C6=O)CC4)CC3)ccc2C1=O (stereo partly shown) [Compound 325]	–	–	inhibit the proliferation of MDA-MB-453 cells to varying degrees	–	–
–	[2H]C([2H])([2H])NC(=O)c1ccc(N2C(=S)N(c3ccc(C#N)c(C(F)(F)F)c3)C(=O)C2(C)C)cc1F [HC-1119, reference compound]	–	–	weak inhibitory effect	–	–
–	N#Cc1ccc(O[C@H]2CC[C@H](NC(=O)c3ccc(N4CCC(CN5CCC6(CC5)CN(c5ccc7c(c5)C(=O)N(C5CCC(=O)NC5=O)C7=O)C6)CC4)nn3)CC2)cc1Cl (stereo partly shown) [Compound 230]	–	–	inhibit the proliferation of MDA-MB-453 cells to varying degrees	–	–
–	COc1cc(O[C@H]2C(C)(C)[C@H](N3Cc4nc(C#C[C@H]5CC[C@H](N6CCN(c7ccc8c(c7)C(=O)N(C7CCC(=O)NC7=O)C8=O)CC6)CC5)ccc4C3=O)C2(C)C)ccc1C#N (stereo partly shown) [Compound 400]	–	–	inhibit the proliferation of MDA-MB-453 cells to varying degrees	–	–
–	COc1cc(O[C@H]2C(C)(C)[C@H](NC(=O)c3ccc(N4CCC(CN5CCN(c6ccc(C(=O)N[C@H]7CCC(=O)NC7=O)c(F)c6)CC5)CC4)cc3)C2(C)C)ccc1C#N [ARV-766, reference compound]	–	–	inhibit the proliferation of MDA-MB-453 cells to varying degrees	synergistic effect	synergistic effect
–	N#Cc1ccc(O[C@H]2CC[C@H](NC(=O)c3ccc(N4CCC(N5CCC6(CC5)CN(c5ccc7c(c5)C(=O)N(C5CCC(=O)NC5=O)C7=O)C6)CC4)nn3)CC2)cc1Cl (stereo partly shown) [Compound 281]	synergistic effect	synergistic effect	inhibit the proliferation of MDA-MB-453 cells to varying degrees	synergistic effect	synergistic effect
–	N#Cc1ccc(O[C@H]2CC[C@H](NC(=O)c3ccc(N4CC5CN(CC6CCN(c7cc8c(cc7F)C(=O)N(C7CCC(=O)NC7=O)C8=O)CC6)CC5C4)nn3)CC2)cc1Cl (stereo partly shown) [Compound 259]	–	–	inhibit the proliferation of MDA-MB-453 cells to varying degrees	–	–
–	N#Cc1ccc(O[C@H]2CC[C@H](NC(=O)c3ccc(N4CCC(CN5CCN(c6cc7c(cc6F)C(=O)N(C6CCC(=O)NC6=O)C7=O)CC5)CC4)nn3)CC2)cc1Cl (stereo partly shown) [ARV-110, reference compound]	synergistic effect	synergistic effect	inhibit the proliferation of MDA-MB-453 cells to varying degrees	synergistic effect	synergistic effect
–	N#Cc1ccc(O[C@H]2CC[C@H](NC(=O)c3cnc(N4C[C@@H]5[C@@H](CN6CCN(c7ccc8c(c7)C(=O)N(C7CCC(=O)NC7=O)C8=O)CC6)[C@@H]5C4)cn3)CC2)cc1Cl (stereo partly shown) [Compound 177]	–	–	inhibit the proliferation of MDA-MB-453 cells to varying degrees	–	–
